Laboratory results reported in paper PMC7790557, “Pleiotropic Properties of Amphiphilic Dihydropyridines, Dihydropyridones, and Aminovinylcarbonyl Compounds” (Oxidative Medicine and Cellular Longevity, 2020).

What was measured:
[1] = tested on: MH-22A (mouse hepatoma); experiment: Cytotoxicity, crystal violet (CV) assay, MH-22A; assay type: cell-based; settings: Mus musculus; Table 1; 72 h exposure; read-out: MH-22A IC50 (CV)
Experimental: After incubation, the staining solution was removed. The cells were washed 4 times with water.

[2] = tested on: NIH3T3 (mouse embryonic fibroblast); experiment: Basal cytotoxicity test, Neutral Red Uptake (NRU) assay; settings: Mus musculus, NIH3T3, 24 h, read-out: NIH3T3 IC50 (NR)
Experimental: The NRU cytotoxicity assay procedure is based on the ability of viable cells to incorporate and bind neutral red, a supravital dye.
Balb/c NIH 3T3 (mouse Swiss albino embryo fibroblast, ATCC® CRL-1658™) cells (9000 cells/well) were placed into 96-well plates for 24 h in Dulbecco's modified Eagle's medium (DMEM) containing 5% fetal bovine serum. Then, the cells were exposed to the test compound over a range of seven concentrations (1000, 316, 100, 31, 10, 3, and 1 μg/ml) for 24 h. Untreated cells were used as a control. After 24 h, the medium was removed from all plates. Then, 150 μl of neutral red solution was added (0.05 mg/ml NR in DMEM 24 h preincubated at 37°C and then filtered before use through a 0.22 μm syringe filter). Plates were incubated for 3 h, and then, the cells were washed three times with PBS. The dye within viable cells was released by extraction with a mixture of acetic acid, ethanol, and water (1 : 50 : 49). The absorbance of neutral red was measured using a spectrophotometer multiplate reader (Tecan Infinite M1000) at 540 nm. The optical density (OD) was calculated using the following formula: OD (treated cells) × 100/OD (control cells). The IC50 values were calculated using the GraphPad Prism® 3.0 program.

[3] = tested on: MH-22A (mouse hepatoma); experiment: Cytotoxicity, MTT assay, MH-22A; assay type: cell-based; settings: Mus musculus; Table 1; 72 h exposure; read-out: MH-22A IC50 (MTT)
From the text: (§1) Reduction takes place only when mitochondrial reductase enzymes are active, and therefore, conversion is directly related to the number of viable cells which can be quantified by the absorbance of the solution (between λ = 500 and 600 nm) using a spectrophotometer.

[4] = tested on: HT-1080 (human lung fibrosarcoma); experiment: Cytotoxicity, MTT assay, HT-1080; assay type: cell-based; settings: Homo sapiens, HT-1080; Table 1; 72 h exposure; read-out: HT-1080 IC50 (MTT)
From the text: as §1

[5] = Electrochemical oxidation potentials, cyclic voltammetry; assay type: physicochemical; settings: glassy carbon electrode, dry acetonitrile
Experimental: A stationary glassy carbon disk electrode (d = 0.5 mm) served as the working electrode, while the counterelectrode was a Pt wire. The oxidation potentials were measured relative to a Ag/Ag^+ reference electrode. Acetonitrile was dried over P2O5 and distilled; the distillate was stored over CaH2 and redistilled just before use. Recrystallized tetrabutylammonium tetrafluoroborate (TBABF4) was used as a supporting electrolyte at 0.1 M concentration.
The electrochemical oxidation of the selected compounds studied in this work was performed by cyclic voltammetry on a stationary glassy carbon electrode in dry acetonitrile; the data is presented in Table 4. The perchlorates of the tested amphiphiles were obtained from the corresponding bromides by treating their abs. MeOH solutions with excess of conc. HClO4 according to the procedure elaborated by Turovska et al..

[6] = tested on: HT-1080 (human lung fibrosarcoma); experiment: Cytotoxicity, crystal violet (CV) assay, HT-1080; settings: Homo sapiens, HT-1080, 72 h, read-out: HT-1080 IC50 (CV)
Experimental: IC50 is the compound concentration (μg/ml) at which 50% of the cells die. […] CV staining can be used to quantify the total DNA of the remaining population and thus is used to determine the number of live cells based on the concentration of the dye which remains after staining.
Tumor cell lines HT-1080 (human connective tissue fibrosarcoma, ATCC® CCL-121™) and MH-22A (mouse hepatocarcinoma, ECACC, cat. Nr. 96121721) were used.
HT-1080 and MH-22A cells were seeded in 96-well plates in Dulbecco's modified Eagle's (DMEM) medium containing 10% fetal bovine serum and 4 mM L-glutamine, without antibiotics, and cultivated for 72 h by exposure to different concentrations of compounds. Cell viability was measured using 3-(4,5-dimethylthiazol-2-yl)-2,5-diphenyltetrazolinium bromide (MTT). In brief, after incubating with compounds, the culture medium was removed and fresh medium with 0.2 mg/ml MTT was added in each well of the plate. After incubation (3 h, 37°C, 5% CO2), the medium with MTT was removed, and 200 μl DMSO was added at once to each sample. The samples were tested at 540 nm on a Tecan Infinite M1000 multiplate reader. The IC50 was calculated using the program GraphPad Prism® 3.0.
For the CV assay, cells were stained with 0.05% crystal violet (Sigma-Aldrich) in 30% methanol for 20 minutes at room temperature. After incubation, the staining solution was removed. The cells were washed 4 times with water. For dye solubilization, 200 μl of a solubilizing solution (0.1 M citrate buffer, pH 4.2 in 50% ethanol; 1 : 1 v/v) was added. The absorbance of the solution was measured using a Tecan Infinite M1000 multiplate spectrophotometer at a wavelength of 570 nm [21].

[7] = previous results; cited from earlier work
[8] = tested on: NIH3T3; experiment: in vitro; settings: mouse
[9] = untreated DPPH level designated 100%; cited from earlier work

SMILES | IC50 [1] | IC50 [2] | IC50 [3] | IC50 [4] | Oxidation potential E^ox ([5]; Table 4, vs Ag/Ag+, 0.1 M TBABF4, tested as perchlorates) | electrooxidation potential ([5]; cyclic voltammetry) | IC50 [6] | electrochemical oxidation potential [7] | LD50 (calculated, NIH3T3) [8] | antiradical activity (ARA), DPPH free radical scavenging [9]
CCOC(=O)C1=C(C[n+]2ccccc2)NC(C[n+]2ccccc2)=C(C(=O)OCC)C1c1ccccc1.[Br-].[Br-] [compound 1, 1,1'-((3,5-Bis(ethoxycarbonyl)-4-phenyl-1,4-dihydropyridine-2,6-diyl)bis(methylene))-bis(pyridin-1-ium) dibromide] | > 100 µg/mL | > 1000 µg/mL | > 100 µg/mL | > 100 µg/mL | 1.57 V | 1.57–1.58 V | > 100 µg/mL | 1.7 V | > 2000 mg/kg | 
CCCCCCCCCCCCOC(=O)C1=C(C[n+]2ccc(N(C)C)cc2)NC(C[n+]2ccc(N(C)C)cc2)=C(C(=O)OCCCCCCCCCCCC)C1c1ccccc1.[Br-].[Br-] [compound 13, 1,1'-((3,5-Bis((dodecyloxy)carbonyl)-4-phenyl-1,4-dihydropyridine-2,6-diyl)bis(methylene))bis(4-(dimethylamino)pyridin-1-ium) dibromide] | 6 ± 2 µg/mL | 119 ± 13 µg/mL | 10 ± 3 µg/mL | 3 ± 0.6 µg/mL |  |  | 10 ± 1 µg/mL |  |  | 27%
